{
  "source": "patent US9834754B2",
  "about": "“Populations of hematopoietic progenitors and methods of enriching stem cells therefor” (University Health Network, priority 2011, dated 2017)",
  "key": {"[1]": {"tested_on": "phospho-SMAD2 (Activin/nodal signaling)", "assay": "Western blot / densitometry of phospho-Smad2 in day 2 EBs", "assay_type": "cell-based, human", "conditions": "30 minutes treatment, FIG. 4B", "excerpt": "Thirty minutes after the addition of DMSO, Activin A, and/or SB at day 2 of differentiation, wells were harvested and lysed on ice using RIPA buffer. Proteins were separated by SDS-PAGE, transferred onto nitrocellulose membranes and probed overnight with Smad2 (Cell Signaling, 1:1000) and phospho-Smad2 antibodies (Millipore, 1:1000, […]/467). Membranes were scanned using the LI-COR Biosciences Odyssey imaging system."}, "iPSC line MSC-iPS1": {"tested_on": "iPSC line MSC-iPS1", "assay": "Hematopoietic differentiation of hiPSCs (flow cytometry and colony assay)", "assay_type": "cell-based, human", "conditions": "SB added between days 2 to 4; hiPSC; FIG. 7", "method": "The hESC line H1 (Thomson et al., 1998) and the reprogrammed human iPS cell line (MSC-iPS1; (Park et al., 2008)) were used in this study. They were maintained on irradiated mouse embryonic fibroblasts in hESC media as described previously (Kennedy et al., 2007). Prior to differentiation, the cells were feeder-depleted by culturing on matrigel (BD Biosciences, Bedford, Mass.) in hESC media for 24 to 48 hours. To generate EBs, hPSCs were treated with collagenase B (1 mg/ml; Roche, Indianapolis, Ind.) for 20 minutes followed by a short trypsin-EDTA (0.05%) step. Cells were gently scraped with a cell scraper to form small aggregates (10-20 cells). […]\nThe following antibodies were used for these studies: CD3-APC (clone UCHT1), CD4-APC-EFluor750 (clone RPA-T4), CD5-PE-Cy7 (clone L17F12), CD7-FITC (clone M-T701), CD8-eFluor-650 NC (clone RPA-T8), CD31-FITC (clone WM59), CD33-FITC (clone HIM 3-4), CD34-APC (clone 8G12), CD34-PE-CY7 (clone 4H11), CD41-APC (clone HIP8), CD42b-PE (clone HIP1), CD43-PE (clone 1G10), CD45-APC-eFluor750 (clone 2D1) or CD45-PacificBlue (clone H130), CD56-PE-Cy7 (clone B159), CD90-APC (clone 5E10), CD117-APC (clone 104D2), CD144-PE (clone 123413), KDR-PE (clone 89106), TCRγδ-FITC (clone 11F2), TCRαβ-PE (clone T10B9.1A-31). Stained cells were analyzed using an LSRII (BD Biosciences) flow cytometer at the indicated time points. […]"}},
  "data": [
    {"smiles": "NC(=O)c1ccc(-c2nc(-c3ccc4c(c3)OCO4)c(-c3ccccn3)[nH]2)cc1", "note": "[SB-431542]", "values": [
      {"measurement": "levels of phospho-SMAD2 (densitometry)", "setting": "[1]", "result": "significantly reduced"},
      {"measurement": "development of CD41+/CD43+ populations and erythroid and erythroid-myeloid progenitors", "setting": "iPSC line MSC-iPS1", "result": "inhibited"}
    ]}
  ]
}
